For one data set, the system named is A549 cells. Briefly: MTT cytotoxicity assay, A549. To be noted: Homo sapiens, 72 h. Format: cell-based. On the procedure: (§1) The results expressed as IC50 values were summarized in Table 1, and the values were the average of at least two independent experiments.
(§2) The cancer cell lines were cultured in minimum essential medium (MEM) supplement with 10% fetal bovine serum (FBS). […] The test compounds at indicated final concentrations were added to the culture medium and the cell cultures were continued for 72 h. […] All of the compounds were tested two times in each of the cell lines. The results expressed as inhibition rates or IC50 (half-maximal inhibitory concentration) were the averages of two determinations and calculated by using the Bacus Laboratories Incorporated Slide Scanner (Bliss) software (the Bacus Laboratories Inc. Slide Scanner (BLISS) system, Lombard, IL, USA)..

For a further data set, the system named is HepG2 cells. Nature of the data set: MTT cytotoxicity assay, HepG2. The format is cell-based. To be noted: Homo sapiens, 72 h. On the procedure:
as §1
(§3) The cancer cell lines were cultured in minimum essential medium (MEM) supplement with 10% fetal bovine serum (FBS). Approximately 4 × 10^3 cells, suspended in MEM medium, were plated onto each well of a 96-well plate and incubated in 5% CO2 at 37 °C for 24 h. The test compounds at indicated final concentrations were added to the culture medium and the cell cultures were continued for 72 h. Fresh MTT was added to each well at a terminal concentration of 5 μg/mL and incubated with cells at 37 °C for 4 h. The formazan crystals were dissolved in 100 μL DMSO each well, and the absorbency at 492 nm (for absorbance of MTT formazan) and 630 nm (for the reference wavelength) was measured with the ELISA reader. All of the compounds were tested two times in each of the cell lines. The results expressed as inhibition rates or IC50 (half-maximal inhibitory concentration) were the averages of two determinations and calculated by using the Bacus Laboratories Incorporated Slide Scanner (Bliss) software (the Bacus Laboratories Inc. Slide Scanner (BLISS) system, Lombard, IL, USA)..

Another data set concerns MCF-7 cells. Nature of the data set: MTT cytotoxicity assay, MCF-7. Format: cell-based. To be noted: Homo sapiens, MCF7, 72 h. On the procedure: as §1, §2
A further data set addresses c-Met kinase (Homo sapiens, UniProt P08581). Nature of the data set: c-Met kinase inhibition assay (HTRF; mobility shift).
In the next data set the test system is A549, HepG2, MCF-7. Nature of the data set: MTT cytotoxicity assay, range over the three cancer cell lines. The following applies: Homo sapiens; range over A549, HepG2 and MCF-7. The format is cell-based. On the procedure:
as §1, §3

Sequence of c-Met kinase (P08581 25-1390): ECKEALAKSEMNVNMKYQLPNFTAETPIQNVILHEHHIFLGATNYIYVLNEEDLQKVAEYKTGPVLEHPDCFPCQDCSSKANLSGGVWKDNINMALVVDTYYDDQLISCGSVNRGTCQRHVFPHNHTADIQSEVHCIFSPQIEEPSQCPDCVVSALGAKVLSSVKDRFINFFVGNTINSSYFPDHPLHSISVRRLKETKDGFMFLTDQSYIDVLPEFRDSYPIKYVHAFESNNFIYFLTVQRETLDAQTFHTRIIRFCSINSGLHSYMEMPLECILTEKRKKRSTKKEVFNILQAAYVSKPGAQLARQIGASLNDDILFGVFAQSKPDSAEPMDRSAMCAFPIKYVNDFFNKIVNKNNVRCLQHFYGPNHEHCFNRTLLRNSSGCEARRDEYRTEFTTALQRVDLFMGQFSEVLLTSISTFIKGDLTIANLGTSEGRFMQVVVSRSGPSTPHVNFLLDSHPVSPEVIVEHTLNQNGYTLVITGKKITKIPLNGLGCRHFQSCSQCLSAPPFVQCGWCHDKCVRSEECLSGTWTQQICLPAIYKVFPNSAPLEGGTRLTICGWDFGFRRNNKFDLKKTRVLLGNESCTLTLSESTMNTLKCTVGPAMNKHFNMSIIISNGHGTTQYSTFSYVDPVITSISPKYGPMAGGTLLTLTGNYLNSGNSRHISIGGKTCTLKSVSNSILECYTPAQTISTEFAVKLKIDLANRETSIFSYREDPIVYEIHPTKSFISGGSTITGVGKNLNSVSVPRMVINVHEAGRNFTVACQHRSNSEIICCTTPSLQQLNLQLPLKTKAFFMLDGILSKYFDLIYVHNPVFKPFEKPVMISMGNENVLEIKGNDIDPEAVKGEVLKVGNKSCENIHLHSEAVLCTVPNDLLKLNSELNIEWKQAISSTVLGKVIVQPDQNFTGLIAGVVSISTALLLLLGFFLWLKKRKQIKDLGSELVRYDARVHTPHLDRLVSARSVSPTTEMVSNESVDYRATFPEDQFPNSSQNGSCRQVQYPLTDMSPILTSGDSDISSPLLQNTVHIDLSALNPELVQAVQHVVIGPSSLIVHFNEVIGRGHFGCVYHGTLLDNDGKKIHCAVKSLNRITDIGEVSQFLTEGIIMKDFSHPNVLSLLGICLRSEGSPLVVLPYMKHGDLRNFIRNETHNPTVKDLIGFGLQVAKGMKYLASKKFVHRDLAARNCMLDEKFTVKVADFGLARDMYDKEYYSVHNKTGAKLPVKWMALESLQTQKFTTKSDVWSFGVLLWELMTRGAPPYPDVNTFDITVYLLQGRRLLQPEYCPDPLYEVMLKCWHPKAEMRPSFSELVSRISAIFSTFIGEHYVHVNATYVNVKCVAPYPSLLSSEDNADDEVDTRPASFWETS
Method for c-Met kinase: All kinase assays were performed in 96-well plates in a 50 µL reaction volume. The kinase buffer contains 50 mM HEPES, pH 7.5, 10 mM MgCl2, 0.0015% Brij-35 and 2 mM DTT. The stop buffer contains 100 mM HEPES, pH 7.5, 0.015% Brij-35, 0.2% Coating Reagent 3 and 50 mM EDTA. Dilute the compounds to 500 µM by 100% DMSO, then transfer 10 µL of compound to a new 96-well plate as the intermediate plate, add 90 µL kinase buffer to each well. Transfer 5 µL of each well of the intermediate plate to 384-well plates. The following amounts of enzyme and substrate were used per well: kinase base buffer, FAM-labeled peptide, ATP and enzyme solution. Wells containing the substrate, enzyme, DMSO without compound were used as DMSO control. Wells containing just the substrate without enzyme were used as low control. Incubate at room temperature for 10 min. Add 10 µL peptide solution to each well. […] At last collect data on Caliper program and convert conversion values to inhibition values. Percent inhibition = (max − conversion)/(max − min) × 100. ‘max’ stands for DMSO control; ‘min’ stands for low control [20].

With `COc1cc2c(Oc3ccc(NC(=O)c4nn(-c5ccc(Br)cc5F)ccc4=O)cc3F)ccnc2cc1OCCCN1CCCCC1` [Compound 35, 1-(4-Bromo-2-fluorophenyl)-N-(3-fluoro-4-((6-methoxy-7-(3-(piperidin-1-yl)propoxy)quinolin-4-yl)oxy)phenyl)-4-oxo-1,4-dihydropyridazine-3-carboxamide], the melting point was in the range of 105.9 to 107.4 °C. The same compound yielded an IC50 in the data set on A549 cells of 1360 ± 190 nM. The same compound yielded a 50% inhibitory concentration (IC50) with HepG2 cells of 3100 ± 490 nM. In the data set with MCF-7 cells, this compound registered an IC50 of 1190 ± 80 nM. Further, the IC50 on c-Met kinase worked out at 8 nM.

Regarding `COc1cc2c(Oc3ccc(NC(=O)c4nn(-c5ccc(Cl)c(C(F)(F)F)c5)ccc4=O)cc3F)ccnc2cc1OCCCN1CCCCC1` [Compound 36, 1-(4-Chloro-3-(trifluoromethyl)phenyl)-N-(3-fluoro-4-((6-methoxy-7-(3-(piperidin-1-yl)propoxy)quinolin-4-yl)oxy)phenyl)-4-oxo-1,4-dihydropyridazine-3-carboxamide], the melting point is 185.7 to 186.6 °C. Besides, the IC50 in the data set with A549 cells is 790 ± 60 nM. For the same compound, in the data set with HepG2 cells, the IC50 was found to be 1800 ± 260 nM. This compound also displayed a 50% inhibitory concentration (IC50) with MCF-7 cells of 730 ± 80 nM. Also, on c-Met kinase, the IC50 came to 11 nM.

`COc1cc2c(Oc3ccc(NC(=O)c4nn(-c5ccccc5)ccc4=O)cc3F)ccnc2cc1OCCCN1CCCCC1` [Compound 37, N-(3-Fluoro-4-((6-methoxy-7-(3-(piperidin-1-yl)propoxy)quinolin-4-yl)oxy)phenyl)-4-oxo-1-phenyl-1,4-dihydropyridazine-3-carboxamide] displayed a melting point of 152.3 to 153.1 °C. Besides, the IC50 in the data set with A549 cells worked out at 60 ± 10 nM. This compound also yielded an IC50 in the data set on HepG2 cells of 180 ± 10 nM. In the data set on MCF-7 cells, this compound showed an IC50 of 30 ± 10 nM. Further, in the data set with A549, HepG2, MCF-7, the IC50 fell in the range of 2 to 1030 nM. For the same compound, on c-Met kinase, the IC50 turned out to be 4 nM.

As for `COc1cc2c(Oc3ccc(NC(=O)c4nn(-c5ccc(F)cc5)ccc4=O)cc3F)ccnc2cc1OCCCN1CCC(C)CC1` [Compound 38, N-(3-Fluoro-4-((6-methoxy-7-(3-(4-methylpiperidin-1-yl)propoxy)quinolin-4-yl)oxy)phenyl)-1-(4-fluorophenyl)-4-oxo-1,4-dihydropyridazine-3-carboxamide], the melting point lay within 210.1 to 211.4 °C. In the data set with A549 cells, this compound returned an IC50 of 28900 ± 1460 nM. Also, in the data set with HepG2 cells, it took 47200 ± 1670 nM to reach half-maximal inhibition (IC50). In the data set on MCF-7 cells, the IC50 came to 22500 ± 1350 nM. Also, on c-Met kinase, the IC50 is more than 500 nM.

Turning to `COc1cc2c(Oc3ccc(NC(=O)c4nn(-c5ccc(Cl)cc5)ccc4=O)cc3F)ccnc2cc1OCCCN1CCC(C)CC1` [Compound 39, 1-(4-Chlorophenyl)-N-(3-fluoro-4-((6-methoxy-7-(3-(4-methylpiperidin-1-yl)propoxy)quinolin-4-yl)oxy)phenyl)-4-oxo-1,4-dihydropyridazine-3-carboxamide], the melting point was 220.6 to 222.1 °C. In the data set on A549 cells, this compound displayed a concentration for half-maximal inhibition (IC50) of 12400 ± 1090 nM. In the data set on HepG2 cells, half-maximal inhibition (IC50) required 7810 ± 890 nM. The compound further came in with an IC50 in the data set on MCF-7 cells of 14100 ± 1150 nM. Also, at c-Met kinase, the half-inhibitory concentration (IC50) was 169 nM.

Compound `COc1cc2c(Oc3ccc(NC(=O)c4nn(-c5ccc(Br)cc5)ccc4=O)cc3F)ccnc2cc1OCCCN1CCC(C)CC1` [Compound 40, 1-(4-Bromophenyl)-N-(3-fluoro-4-((6-methoxy-7-(3-(4-methylpiperidin-1-yl)propoxy)quinolin-4-yl)oxy)phenyl)-4-oxo-1,4-dihydropyridazine-3-carboxamide] returned a melting point of 220.7 to 221.4 °C. In the data set with A549 cells, this compound yielded an IC50 of 13500 ± 1130 nM. In the data set with HepG2 cells, the IC50 worked out at 8840 ± 950 nM. The compound also displayed an IC50 in the data set with MCF-7 cells of 9740 ± 990 nM. Further, the IC50 on c-Met kinase turned out to be 345 nM.

`COc1ccc(-n2ccc(=O)c(C(=O)Nc3ccc(Oc4ccnc5cc(OCCCN6CCC(C)CC6)c(OC)cc45)c(F)c3)n2)cc1` [Compound 41, N-(3-Fluoro-4-((6-methoxy-7-(3-(4-methylpiperidin-1-yl)propoxy)quinolin-4-yl)oxy)phenyl)-1-(4-methoxyphenyl)-4-oxo-1,4-dihydropyridazine-3-carboxamide]: the melting point fell in the range of 145.1 to 146.3 °C. The IC50 with A549 cells was 20 ± 10 nM. Further, in the data set with HepG2 cells, half-maximal inhibition (IC50) required 8 ± 1 nM. The same compound registered an IC50 with MCF-7 cells of 20 ± 10 nM. In addition, the IC50 in the data set on A549, HepG2, MCF-7 lay within 2 to 1030 nM. Moreover, the IC50 on c-Met kinase came out at 0.9 nM.

As to `COc1cc2c(Oc3ccc(NC(=O)c4nn(-c5ccc(F)c(Cl)c5)ccc4=O)cc3F)ccnc2cc1OCCCN1CCC(C)CC1` [Compound 42, 1-(3-Chloro-4-fluorophenyl)-N-(3-fluoro-4-((6-methoxy-7-(3-(4-methylpiperidin-1-yl)propoxy)quinolin-4-yl)oxy)phenyl)-4-oxo-1,4-dihydropyridazine-3-carboxamide], the melting point was in the range of 112.5 to 113.7 °C. In the data set with A549 cells, this compound registered an IC50 of 5 ± 1 nM. In the data set with HepG2 cells, this compound gave an IC50 of 1030 ± 10 nM. Also, the IC50 in the data set with MCF-7 cells was 7 ± 1 nM. Further, the IC50 with A549, HepG2, MCF-7 was in the range of 2 to 1030 nM. The IC50 on c-Met kinase was found to be 1.2 nM.

In turn, `COc1cc2c(Oc3ccc(NC(=O)c4nn(-c5ccc(Br)cc5F)ccc4=O)cc3F)ccnc2cc1OCCCN1CCC(C)CC1` [Compound 43, 1-(4-Bromo-2-fluorophenyl)-N-(3-fluoro-4-((6-methoxy-7-(3-(4-methylpiperidin-1-yl)propoxy)quinolin-4-yl)oxy)phenyl)-4-oxo-1,4-dihydropyridazine-3-carboxamide] came in with a melting point of 115.8 to 117.3 °C. This compound also had an IC50 in the data set on A549 cells of 30 ± 10 nM. Further, the IC50 in the data set on HepG2 cells is 3 ± 1 nM. Also, the IC50 in the data set on MCF-7 cells came out at 5 ± 1 nM. The compound further had an IC50 in the data set on A549, HepG2, MCF-7 of 2 to 1030 nM. Moreover, the IC50 on c-Met kinase worked out at 2 nM.

In the case of `COc1cc2c(Oc3ccc(NC(=O)c4nn(-c5ccc(Cl)c(C(F)(F)F)c5)ccc4=O)cc3F)ccnc2cc1OCCCN1CCC(C)CC1` [Compound 44, 1-(4-Chloro-3-(trifluoromethyl)phenyl)-N-(3-fluoro-4-((6-methoxy-7-(3-(4-methylpiperidin-1-yl)propoxy)quinolin-4-yl)oxy)phenyl)-4-oxo-1,4-dihydropyridazine-3-carboxamide], the melting point lay within 137.7 to 138.6 °C. Further, the IC50 in the data set on A549 cells was 150 ± 30 nM. The compound also came in with an IC50 with HepG2 cells of 650 ± 50 nM. Also, 5960 ± 70 nM corresponded to half-maximal inhibition in the data set with MCF-7 cells (IC50). Besides, at c-Met kinase, the IC50 is 19 nM.

On to `COc1cc2c(Oc3ccc(NC(=O)c4nn(-c5ccccc5)ccc4=O)cc3F)ccnc2cc1OCCCN1CCC(C)CC1` [Compound 45, N-(3-Fluoro-4-((6-methoxy-7-(3-(4-methylpiperidin-1-yl)propoxy)quinolin-4-yl)oxy)phenyl)-4-oxo-1-phenyl-1,4-dihydropyridazine-3-carboxamide], for which the melting point lay within 148.5 to 150.1 °C. This compound also returned an IC50 in the data set on A549 cells of 2950 ± 470 nM. In the data set with HepG2 cells, this compound returned an IC50 of 4660 ± 670 nM. In the data set with MCF-7 cells, the IC50 amounted to 2010 ± 300 nM. For the same compound, the IC50 on c-Met kinase came out at 187 nM.

The compound `COc1cc2c(Oc3ccc(NC(=O)c4nn(-c5ccc(Cl)cc5)ccc4=O)cc3F)ccnc2cc1OCCCN1CCN(C)CC1` [Compound 47, 1-(4-Chlorophenyl)-N-(3-fluoro-4-((6-methoxy-7-(3-(4-methylpiperazin-1-yl)propoxy)quinolin-4-yl)oxy)phenyl)-4-oxo-1,4-dihydropyridazine-3-carboxamide] gave a melting point of 163.5 to 165.3 °C. Besides, half-maximal inhibition in the data set with A549 cells (IC50) required 20000 ± 1300 nM. Moreover, in the data set on HepG2 cells, the IC50 was found to be 14200 ± 1150 nM. Further, 21100 ± 1320 nM corresponded to half-maximal inhibition in the data set on MCF-7 cells (IC50). The IC50 on c-Met kinase was 145 nM.

`COc1cc2c(Oc3ccc(NC(=O)c4nn(-c5ccc(Br)cc5)ccc4=O)cc3F)ccnc2cc1OCCCN1CCN(C)CC1` [Compound 48, 1-(4-Bromophenyl)-N-(3-fluoro-4-((6-methoxy-7-(3-(4-methylpiperazin-1-yl)propoxy)quinolin-4-yl)oxy)phenyl)-4-oxo-1,4-dihydropyridazine-3-carboxamide] came in with a melting point of 159.7 to 161.2 °C. The same compound came in with an IC50 with A549 cells of more than 50000 nM. The compound further gave an IC50 in the data set on HepG2 cells of more than 50000 nM. The compound further gave an IC50 in the data set on MCF-7 cells of more than 50000 nM. The IC50 on c-Met kinase was more than 500 nM.

Take `COc1ccc(-n2ccc(=O)c(C(=O)Nc3ccc(Oc4ccnc5cc(OCCCN6CCN(C)CC6)c(OC)cc45)c(F)c3)n2)cc1` [Compound 49, 1-(4-((l1-Oxidanyl)-l5-methyl)phenyl)-N-(3-fluoro-4-((6-methoxy-7-(3-(4-methylpiperazin-1-yl)propoxy)quinolin-4-yl)oxy)phenyl)-4-oxo-1,4-dihydropyridazine-3-carboxamide]: the melting point fell in the range of 167.5 to 169.1 °C. Moreover, in the data set with A549 cells, the IC50 turned out to be 9120 ± 960 nM. The compound also displayed an IC50 in the data set with HepG2 cells of 3680 ± 570 nM. Besides, the 50% inhibitory concentration (IC50) with MCF-7 cells was 8120 ± 910 nM. Moreover, the 50% inhibitory concentration (IC50) on c-Met kinase is 78 nM.

The values above are taken from PMC6099740, “Design, Synthesis and Biological Evaluation of 6,7-Disubstituted-4-phenoxyquinoline Derivatives Bearing Pyridazinone Moiety as c-Met Inhibitors” (Molecules : A Journal of Synthetic Chemistry and Natural …, 2018).
